Read-outs that look alike come from different tables or passages of the source.
Columns and labels:
[1] = biological target: human Farnesoid X receptor ligand-binding domain/Gal4 DNA binding domain chimera (Homo sapiens (Human), UniProt Q96RI1); assay: Cell-based FXR beta-lactamase reporter assay (FXR-UAS-bla HEK 293T cells); conditions: for FXR pEC50 / % Efficacy / EC50: cellular FXR beta-lactamase reporter assay; for FXR pEC50 / EC50: -log EC50; for % Efficacy: extent of activation relative to GW4064; for Emax: HEK-293T, read-out: % Efficacy; for EC50: read-out: FXR pEC50 (converted)
Protocol: FXR activation was measured using a cell line and procedure obtained from Life Technologies (Cat #K1691). FXR-UAS-bla HEK 293T cells contain a human Farnesoid X receptor ligand-binding domain/Gal4 DNA binding domain chimera stably integrated into the CellSensor® UAS-bla HEK 293T cell line. The CellSensor® UAS-bla HEK 293T contains a beta-lactamase reporter gene under control of a UAS response element stably integrated into HEK 293T cells. Activation of FXR by bound ligands results in transcriptional activation of the beta-lactamase reporter gene, which is detected via assay of beta-lactamase activity. Cells are harvested and diluted into assay medium containing phenol red-free DMEM supplemented with 2% Charcoal-stripped FBS, pyruvate, non-essential amino acids. Cells are then transferred to a 384 well assay plate. Test compounds are dissolved in DMSO and a 3-fold serial dilution series is generated, then further diluted into assay medium. […] A FRET-based […] is loaded into cells as its acetomethoxy ester. Intracellular esterases liberate free CCF4, a cephalosporin core linking 7-hydroxycoumarin to fluorescein. In the presence of beta-lactamase activity produced in the presence of FXR agonists, cleavage of CCF4 spatially separates the two dyes and disrupts FRET, so that exciting the coumarin at 409 nm now produces a blue fluorescence signal at 447 nm. The change in FRET signal is plotted against the test compound concentration and fit to a 3-parameter logistical equation.

[2] = biological target: ligand binding domain of human FXR (Homo sapiens (Human), UniProt Q96RI1); assay: FXR ligand binding assay (LanthaScreen FRET); conditions: for Emax: read-out: % Efficacy;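 on all read-outs here: TR-FRET coactivator recruitment: ligand-induced binding of fluorescein-labelled SRC2-2 peptide to GST-tagged FXR LBD detected via Tb anti-GST antibody, serial compound dilutions, 3-parameter logistic fit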
Protocol: The affinity of FXR ligands for the ligand binding domain of FXR was determined using a commercially available human FXR ligand binding assay (LanthaScreen, Thermofisher Cat #PV4833). […] Binding of FXR ligands to the FXR ligand binding domain promotes binding of the fluorescein-labelled SRC2-2 peptide. This causes a FRET signal between the terbium-labelled anti-GST antibody and the fluorescein-labelled SRC peptide which are both bound to the FXR ligand binding domain.
Test compounds are dissolved in DMSO and a 3-fold serial dilution series is generated, then further diluted into assay buffer. The compounds are mixed with 5 nM GST-tagged FXR ligand binding domain, 5 nM Tb-labelled anti-GST antibody and 500 nM fluorcscein-labelled SRC2-2 peptide in a pH 7.4 buffer. The reaction is incubated at room temperature for 1 hour, then the FRET signal is measured as the ratio of the 520 nm/495 nm emission following excitation at 340 nm. The change in FRET signal is plotted against the test article concentration and fit to a 3-parameter logistical equation.

[3] = FXR ligand binding assay, -log EC50
[4] = FXR ligand binding assay, extent of activation relative to GW4064

Chain of human Farnesoid X receptor ligand-binding domain/Gal4 DNA binding domain chimera (Q96RI1 262-486, stated change not applied): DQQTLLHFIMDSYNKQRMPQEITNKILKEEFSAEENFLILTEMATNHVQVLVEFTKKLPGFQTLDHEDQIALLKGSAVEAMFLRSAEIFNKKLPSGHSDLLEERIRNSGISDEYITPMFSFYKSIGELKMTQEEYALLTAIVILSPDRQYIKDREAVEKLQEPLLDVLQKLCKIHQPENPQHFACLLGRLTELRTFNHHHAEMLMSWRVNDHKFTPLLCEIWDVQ
Chain of ligand binding domain of human FXR (Q96RI1 262-486): as the sequence (Q96RI1 262-486, stated change not applied) above

Row | SMILES | FXR pEC50 [1] | % Efficacy [1] [%] | FXR pEC50 [2, 3] | % Efficacy [2, 4] [%] | Emax [1] [%] | EC50 [1] [nM] | Emax [2] [%] | EC50 ([2]; FXR ligand binding assay, -log EC50, read-out: FXR pEC50 (converted)) [nM] | % Efficacy [2] [%]
1 | O=C(O)c1cc(F)c2nc(N3[C@@H]4CC[C@H]3C[C@@H](OC(=O)c3c(-c5c(Cl)cccc5OC(F)F)noc3C3CC3)C4)sc2c1 [Compound I-15, 2-[(1R,3R,5S)-3-{3-[2-chloro-6-(difluoromethoxy)phenyl]-5-cyclopropyl-1,2-oxazole-4-carbonyloxy}-8-azabicyclo[3.2.1]octan-8-yl]-4-fluoro-1,3-benzothiazole-6-carboxylic Acid] | 7.4 | 108 | 7.4 | 71 | – | – | – | – | –
2 | O=C(O)c1cc(F)c2nc(N3[C@@H]4CC[C@H]3C[C@@H](OC(=O)c3c(-c5c(F)cccc5F)noc3C3CC3)C4)sc2c1 [Compound I-16, 2-[(1R,3R,5S)-3-[5-cyclopropyl-3-(2,6-difluorophenyl)-1,2-oxazole-4-carbonyloxy]-8-azabicyclo[3.2.1]octan-8-yl]-4-fluoro-1,3-benzothiazole-6-carboxylic Acid] | 6.7 | 110 | 7.4 | 47 | – | – | – | – | –
3 | COc1cc(C(=O)O)cc2sc(N3[C@@H]4CC[C@H]3C[C@@H](OC(=O)c3c(-c5c(F)cccc5F)noc3C3CC3)C4)nc12 [Compound I-17, 2-[(1R,3R,5S)-3-[5-cyclopropyl-3-(2,6-difluorophenyl)-1,2-oxazole-4-carbonyloxy]-8-azabicyclo[3.2.1]octan-8-yl]-4-methoxy-1,3-benzothiazole-6-carboxylic Acid] | – | – | – | – | 112 | 126 | 44 | – | –
4 | COc1cc2nc(N3[C@@H]4CC[C@H]3C[C@@H](OC(=O)c3c(-c5c(F)cccc5F)noc3C3CC3)C4)sc2cc1C(=O)O [Compound I-18, 2-[(1R,3R,5S)-3-[5-cyclopropyl-3-(2,6-difluorophenyl)-1,2-oxazole-4-carbonyloxy]-8-azabicyclo[3.2.1]octan-8-yl]-5-methoxy-1,3-benzothiazole-6-carboxylic Acid] | – | – | – | – | 99 | 251 | 66 | – | –
5 | O=C(O)c1cc(F)c2nc(N3[C@@H]4CC[C@H]3C[C@@H](OC(=O)c3c(C5CCC6(CC5)CC6)noc3C3CC3)C4)sc2c1 [Compound I-19, 2-[(1R,3R,5S)-3-(5-cyclopropyl-3-{spiro[2.5]octan-6-yl}-1,2-oxazole-4-carbonyloxy)-8-azabicyclo[3.2.1]octan-8-yl]-4-fluoro-1,3-benzothiazole-6-carboxylic Acid] | 6.8 | 79 | 7.2 | 55 | – | – | – | – | –
6 | O=C(O)c1cc(F)c2nc(N3[C@@H]4CC[C@H]3C[C@@H](OC(=O)c3c(C56CCC(CC5)CC6)noc3C3CC3)C4)sc2c1 [Compound I-20, 2-[(1R,3R,5S)-3-(3-{Bicyclo[2.2.2]octan-1-yl}-5-cyclopropyl-1,2-oxazole-4-carbonyloxy)-8-azabicyclo[3.2.1]octan-8-yl]-4-fluoro-1,3-benzothiazole-6-carboxylic Acid] | 6.6 | 22 | >4.5 | – | – | – | – | – | –
7 | Cc1onc(-c2c(Cl)cccc2Cl)c1C(=O)O[C@H]1C[C@H]2CC[C@@H](C1)N2c1nc2c(F)cc(C(=O)O)cc2s1 [Compound I-23, 2-[(1R,3S,5S)-3-[3-(2,6-dichlorophenyl)-5-methyl-1,2-oxazole-4-carbonyloxy]-8-azabicyclo[3.2.1]octan-8-yl]-4-fluoro-1,3-benzothiazole-6-carboxylic Acid] | 6.8 | 100 | 7.1 | 37 | – | – | – | – | –
8 | O=C(O)c1cc(F)c2nc(N3[C@@H]4CC[C@H]3C[C@@H](OC(=O)c3c(-c5c(Cl)cccc5Cl)noc3C3CCC3)C4)sc2c1 [Compound I-24, 2-[(1R,3R,5S)-3-[5-cyclobutyl-3-(2,6-dichlorophenyl)-1,2-oxazole-4-carbonyloxy]-8-azabicyclo[3.2.1]octan-8-yl]-4-fluoro-1,3-benzothiazole-6-carboxylic Acid] | 7.5 | 98 | 7.9 | 64 | – | – | – | – | –
9 | O=C(O)c1cc(F)c2nc(N3[C@@H]4CC[C@H]3C[C@@H](OC(=O)c3c(-c5c(Cl)cccc5Cl)noc3C3(F)CC3)C4)sc2c1 [Compound I-27, 2-[(1R,3R,5S)-3-[3-(2,6-dichlorophenyl)-5-(1-fluorocyclopropyl)-1,2-oxazole-4-carbonyloxy]-8-azabicyclo[3.2.1]octan-8-yl]-4-fluoro-1,3-benzothiazole-6-carboxylic Acid] | 8.4 | 108 | 8.2 | 107 | – | – | – | – | –
10 | Cn1cc(C(=O)O)c2ccc(N3[C@@H]4CC[C@H]3C[C@@H](OC(=O)c3c(-c5c(Cl)cccc5Cl)noc3C3CC3)C4)cc21 [Compound I-28, 6-[(1R,3R,5S)-3-[5-cyclopropyl-3-(2,6-dichlorophenyl)-1,2-oxazole-4-carbonyloxy]-8-azabicyclo[3.2.1]octan-8-yl]-1-methyl-1H-indole-3-carboxylic Acid] | – | – | – | – | 117 | 25.1 | 94 | – | –
11 | O=C(O[C@H]1C[C@H]2CC[C@@H](C1)N2c1ccc2c(C(=O)O)noc2c1)c1c(-c2c(Cl)cccc2Cl)noc1C1CC1 [Compound I-29, 6-[(1R,3R,5S)-3-[5-cyclopropyl-3-(2,6-dichlorophenyl)-1,2-oxazole-4-carbonyloxy]-8-azabicyclo[3.2.1]octan-8-yl]-1,2-benzoxazole-3-carboxylic Acid] | – | – | – | – | 124 | 251 | 98 | 316 | –
12 | CN1c2cc(N3[C@@H]4CC[C@H]3C[C@@H](OC(=O)c3c(-c5c(Cl)cccc5Cl)noc3C3CC3)C4)ccc2C(=O)C1(F)F [Compound I-30, (1R,3R,5S)-8-(2,2-difluoro-1-methyl-3-oxo-2,3-dihydro-1H-indol-6-yl)-8-azabicyclo[3.2.1]octan-3-yl 5-cyclopropyl-3-(2,6-dichlorophenyl)-1,2-oxazole-4-carboxylate] | – | – | – | – | 82 | 100 | 40 | – | –
13 | Cn1c(N2[C@@H]3CC[C@H]2C[C@@H](OC(=O)c2c(-c4c(Cl)cccc4Cl)noc2C2CC2)C3)nc2c(F)cc(C(=O)O)cc21 [Compound I-31, 2-[(1R,3R,5S)-3-[5-cyclopropyl-3-(2,6-dichlorophenyl)-1,2-oxazole-4-carbonyloxy]-8-azabicyclo[3.2.1]octan-8-yl]-4-fluoro-1-methyl-1H-1,3-benzodiazole-6-carboxylic Acid] | 6.4 | 100 | 6.6 | – | – | – | – | – | 63
14 | O=C(Cc1c(-c2c(Cl)cccc2Cl)noc1C1CC1)O[C@H]1C[C@H]2CC[C@@H](C1)N2c1nc2c(F)cc(C(=O)O)cc2s1 [Compound I-32, 2-[(1R,3R,5S)-3-({2-[5-cyclopropyl-3-(2,6-dichlorophenyl)-1,2-oxazol-4-yl]acetyl}oxy)-8-azabicyclo[3.2.1]octan-8-yl]-4-fluoro-1,3-benzothiazole-6-carboxylic Acid] | 6.4 | 86 | 7.4 | 34 | – | – | – | – | –
15 | O=C(O)c1ccc(N2[C@@H]3CC[C@H]2C[C@@H](OC(=O)c2c(-c4c(Cl)cccc4Cl)noc2C2CC2)C3)cc1 [Compound I-34, 4-[(1R,3R,5S)-3-[5-Cyclopropyl-3-(2,6-dichlorophenyl)-1,2-oxazole-4-carbonyloxy]-8-azabicyclo[3.2.1]octan-8-yl]benzoic Acid] | – | – | – | – | 107 | 20 | 79 | – | –

From patent US11091482B2, “Isoxazolyl-carbonyloxy azabicyclo[3.2.1]octanyl compounds as FXR activators” (ARDELYX, INC., priority 2016, dated 2021)
